This note sets out measurements from article PMC10545732, “Structure-based drug discovery of a corticotropin-releasing hormone receptor 1 antagonist using an X-ray free-electron laser” (Experimental & Molecular Medicine, 2023).

In general, IC50 refers to the point on the concentration scale where inhibition reaches its midpoint.

“Also recorded” adds a separate entry of the source.

One data set concerns CORT serum levels. Kind of data set: Serum CORT level after TST (LC-MS). The data set is classed as in vivo, mice. Particulars: 30 mg/kg orally for 3 days, immediately after TST. The protocol:
The mice were anesthetized via intraperitoneal injections of 2,2,2-tribromoethanol (300 mg/kg, Sigma-Aldrich) immediately after the TST and before blood from the heart was sampled. Blood samples were collected in plastic tubes and incubated at room temperature for at least 2 h. The sera were extracted after centrifugation at 13,000×g for 10 min at 4 °C. CORT levels were determined via LC‒MS analysis. Serum (10 µL) was mixed with 20 μL of an internal standard solution (d4-cortisol) to prepare the samples. Subsequently, 100 μL of acetonitrile was added, and the mixture was centrifuged at 16,000×g for 10 min for protein precipitation. The supernatants (60 μL) were transferred into an autosampler vial, and 30 μL of water was added for efficient separation via high-performance liquid chromatography (HPLC). LC‒MS was performed with a triple quadrupole mass spectrometer coupled with HPLC using a C18 reversed-phase column. CORT levels were determined using a calibration curve constructed using CORT-spiked mouse serum. Serum samples (20 μL) were analyzed using a commercially available ELISA kit for ACTH (ab263880, Abcam) to measure ACTH serum levels.

The test system of the next data set is C57BL/6J mice. Description: Open field test (OFT). The data set is classed as in vivo. Particulars: 30 mg/kg orally for 3 days, 1 h open field. As to the method: C57BL/6J mice (male, 9–10 weeks old) were used for the behavioral tests. All mice were maintained under a 12:12-h light–dark cycle (lights on at 7:00 A.M.) with access to food and water ad libitum. Animal care and handling were performed according to guidelines by the Institutional Animal Care and Use Committee of Yonsei University (Seoul, Korea). Antalarmin, BMK-C203, and BMK-C205 were dissolved in peceol: TPGS: PEG400 (vehicle) (70%:20%:10%, respectively) and administered orally at a dose of 30 mg/kg for 3 days at 24-h intervals. All behavioral tests were conducted 2 h after the third drug was administered during light periods of the circadian cycle. TSTs were performed to verify the effect of CRF1R antagonists on depressive-like behavior. Each mouse was suspended by its tail on a bar 30 cm above the ground for 6 min using adhesive tape. Their movements were recorded by a camera and analyzed using the same parameters via EthoVision XT 8.5 software (Noldus Technologies). Immobility times during the last 4 min of the task were measured. Each mouse was placed in an open field (40 cm × 40 cm × 40 cm chamber) for 1 h to conduct an open field test (OFT) and test locomotion. Their locomotion was recorded and analyzed using EthoVision XT 8.5.

Data set [1] in a line: Microsomal stability assay, rat liver microsomes. The data set is classed as in vitro ADME. Particulars: 1 μM, n = 3. The protocol: The incubation mixtures consisted of 0.5 mg/mL human (Corning, #452117) and rat liver microsomes (Corning, #452701), 0.1 M phosphate buffer (pH 7.4), NADPH regeneration system, and substrates (CRF1R antagonist compounds, 1 µM) in a total volume of 100 μL. […] LC‒MS/MS was performed on a TSQ Vantage (Thermo, USA) coupled with a Nexera XR LC system (Shimadzu, Japan)[32]. The separation was performed on a Kinetex C18 column (2.1 × 100 mm, 2.6 µm, Phenomenex, USA) using a mobile phase of 0.1% formic acid and acetonitrile containing 0.1% formic acid. A gradient program was used for elution at a flow rate of 0.3 mL/min. The data were acquired using multiple-reaction monitoring (MRM) in positive mode. Detection of the ions was performed by monitoring the m/z transition of 494.1 → 336.1 for BMK-I-152, 598.1 → 233.2 for BMK-C203, and 488.1 → 434.1 for BMK-C205.
Background: Liver microsomes are vesicles of endoplasmic reticulum, rich in cytochrome P450 enzymes.

Data set [2] in a line: Microsomal stability assay, human liver microsomes. The settings on record: for Liver microsomal stability, Human (percentage remaining after 30 min): 1 μM, n = 3; for metabolic stability improved by: human and rat liver microsomes, 30 min. The data set is classed as in vitro ADME. The protocol: LC‒MS/MS was performed on a TSQ Vantage (Thermo, USA) coupled with a Nexera XR LC system (Shimadzu, Japan)[32]. The separation was performed on a Kinetex C18 column (2.1 × 100 mm, 2.6 µm, Phenomenex, USA) using a mobile phase of 0.1% formic acid and acetonitrile containing 0.1% formic acid. A gradient program was used for elution at a flow rate of 0.3 mL/min. The data were acquired using multiple-reaction monitoring (MRM) in positive mode.

Another data set addresses T1, CRF1R (Homo sapiens, UniProt P34998).
T1 construct: HEK-Gα15 cells (Eurofins Scientific) transfected with CRF1R; host or cells: HEK-Gα15 cells
T1 sequence (P34998 24-415): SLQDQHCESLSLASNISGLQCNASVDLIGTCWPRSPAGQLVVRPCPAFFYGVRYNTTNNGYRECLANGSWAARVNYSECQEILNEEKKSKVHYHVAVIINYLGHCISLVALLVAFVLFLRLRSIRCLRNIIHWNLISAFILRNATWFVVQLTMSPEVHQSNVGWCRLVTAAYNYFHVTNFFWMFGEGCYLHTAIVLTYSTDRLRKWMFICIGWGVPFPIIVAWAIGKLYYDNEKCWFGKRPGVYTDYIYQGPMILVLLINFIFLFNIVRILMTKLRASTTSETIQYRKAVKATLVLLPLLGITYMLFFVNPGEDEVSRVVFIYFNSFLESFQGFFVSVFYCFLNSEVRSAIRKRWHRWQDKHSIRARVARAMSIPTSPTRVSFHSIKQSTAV
Description: Calcium mobilization assay (hCRF1R Ca2+ antagonism). The data set is classed as cell-based. Particulars: for IC50: HEK-Gα15 cells transfected with CRF1R, urocortin 2 nM, n = 3. As to the method:
HEK-Gα15 cells (Eurofins Scientific) transfected with CRF1R were plated in 96-well plates at a density of 50,000 cells/100 μL per well and incubated overnight. The next day, the cells were incubated with a Calcium 6 reagent (Molecular Devices) containing 0.5 mM probenecid (Sigma) at 37 °C for 1 h before adding compounds or dimethyl sulfoxide DMSO (positive and negative control; final concentration 0.1%). After incubation at 37 °C for 1 h, 50 μL urocortin (final concentration 2 nM) (Tocris) was dispensed into the well with FLIPR-tetra (Molecular Devices). […] Intracellular calcium changes were recorded at excitation and emission wavelengths of 470–495 and 515–575 nm, respectively. Relative fluorescence units (RFU) were calculated as the fluorescence signal maximum minus the signal minimum for 30 s after addition. The graphs and IC50 concentrations were calculated using GraphPad Prism 6 software.
Background: Calcium assays in cells follow changes in intracellular calcium, usually with a dye or a luminescent sensor.

Consider `COc1cc(Br)cc(OC)c1-c1c(C)nn2c(N(CCCC(F)(F)F)CCCC(F)(F)F)nc(C)nc12` [BMK-C203], for which, in the data set on CORT serum levels, the “serum CORT level versus vehicle” value was “did not significantly affect”. In the data set on C57BL/6J mice, the “OFT locomotion / overall moving distance” value is “did not differ among groups”. In data set [1], the “Liver microsomal stability, Rat (percentage remaining after 30 min)” value is 97.1 ± 8.81%. Further, in data set [2], the “Liver microsomal stability, Human (percentage remaining after 30 min)” value was 88.3 ± 16.71% and the “metabolic stability improved by” value is “more than 90%”. The IC50 on CRF1R came out at 280 nM.

As to `CCCCN(CC1CC1)c1nc(C)nc2c(-c3c(OC)cc(Br)cc3OC)c(C)nn12` [BMK-C205], the “serum CORT level versus vehicle” value in the data set on CORT serum levels is recorded as “decreased”. The “OFT locomotion / overall moving distance” value with C57BL/6J mice is recorded as “did not differ among groups; also recorded: no differences”. Further, the “Liver microsomal stability, Rat (percentage remaining after 30 min)” value in data set [1] is on record as 89.4 ± 2.07%. For the same compound, in data set [2], the “Liver microsomal stability, Human (percentage remaining after 30 min)” value came out at 88.0 ± 4.50% and the “metabolic stability improved by” value was “more than 90%”. The IC50 on CRF1R was 74 nM. Also, the “IC50 relative to BMK-C203” value on CRF1R (hCRF1R Ca2+ antagonism assay) is given as “fourfold lower”.
